Measured values published in patent US6423691B1, “Pharmaceutical composition for prophylaxis and therapy of diseases associated with ocular fundus tissue cytography” (Senju Pharmaceutical Co., Ltd., priority 1998, dated 2002).
Peptide text beside a SMILES is read from it. * marks the point of attachment. Cbz = O=C(OCc1ccccc1)*

Columns and labels:
[1] = tested on: retinal neurons (ganglion cells) and inner nuclear layer cells; assay: Effect on rat ocular fundus tissue cytopathy (central retinal artery occlusion/reperfusion); format: in vivo; settings: male SD rats, 75 min central retinal artery occlusion, 100 mg/kg i.p. 15 min before occlusion, immediately after reperfusion, then once daily; specimens 5 days after reperfusion
Excerpt: FIG. 1 is a diagrammatic representation of the effect on injury of rat retinal ganglion cells. The ordinate represents the number of ganglion cells. In the diagram, a) denotes a significant difference (p<0.01) from the normal group by Student's t-test; b) denotes a significant difference (p<0.01) from the control group by Student's t-test.
FIG. 2 is a diagrammatic representation of the effect on injury of the rat retinal inner nuclear layer cells. The ordinate represents the number of inner nuclear layer cells. In the diagram, a) denotes a significant difference (p<0.01) from the normal group by Student's t-test; b) denotes a significant difference (p<0.01) from the control group by Student's t-test.
Effect on Rat Ocular Fundus Tissue Cytopathy Method:
Using male SD rats (b. wt. 150 g), the central retinal artery was occluded with an aneurysm clip under anesthesia with 5 w/v % ketamine HCl/2 w/v % xylazine HCl (3:1, 0.5 ml, i.p.) to arrest the blood flow for 75 minutes. In the normal group, the central retinal artery was exposed but ischemia was not introduced. Tissue specimens were prepared 5 days after reperfusion. For use as a tissue specimen, the enucleated eyeball was fixed in 4% formaldehyde and embedded in paraffin in a routine manner. Then, thin sections (3 μm thick) were prepared by transverse slicing at right angles with the retinal surface including the optic disc and stained with hematoxylin-eosin. Under the light microscope, the retinal neurons (ganglion cells) and inner nuclear layer cells were counted per 0.25 mm span of the retinal section at a predetermined distance (1-2 mm) from the optic disc. As the test drug, a parenteral suspention prepared as in Example 3 was administered intraperitoneally in a dose of 100 mg, as Compound 1, per kg body weight 15 minutes before arterial occlusion, immediately after reperfusion, and thereafter once daily (Compound 1 administration group). The control and normal groups were similarly given the vehicle used in Example 3. In the positive control group, Cbz-Val-Phe-H [S.C. Hong et al., Stroke, 25 (3), 663-669, 1994], 100 mg/kg, was similarly administered (MDL administration group).

[2] = tested on: calpain; assay: Effect on rat enucleated retina cytopathy under hypoxia (spectrin cleavage, SDS electrophoresis); format: cell-based; settings: rat retina incubated under hypoxia in glucose-free RPMI 1640, 3 and 6 hours, 100 μM
Description: FIG. 3(a) and FIG. 3(b) are SDS electrophoretic images showing the cleavage product of endocellular spectrin obtained upon homogenation of retina tissues detected after incubation of rat retina tissues under hypoxia, wherein FIG. 3(a) and FIG. 3(b) show SDS electrophoretic images after incubation for 3 hours and 6 hours, respectively.
Effect on Rat Enucleated Retina Cytopathy Under Hypoxia Method:
The ocular fundus tissue (retina) of male SD rats (b. wt. 150 g) was removed and incubated under hypoxia in RPMI 1640 medium (manufactured by (Gibco) without glucose. The ocular fundus tissue was homogenized 3 and 6 hours later, and the cleavage product of endocellular spectrin was isolated by SDS electrophoresis and detected using homophil prepared by the method of Saido et. al. [The Journal of Biological Chemistry, 268, 25239-25243 (1993)]. As the test compounds, Compound 1 and MDL were dissolved in ethanol to a concentration of 20 mM and added to the culture medium to a concentration of 100 μM (Compound 1 administration group and MDL administration group). As a control, the ocular fundus tissue of male SD rats (b. wt. 150 g) was incubated in the same manner in the presence of oxygen in RPMI 1640 medium containing glucose.

Row | Compound | inhibition of the decrease in ganglion cell count caused by arterial occlusion [1] | inhibition of the decrease in inner nuclear layer cell count caused by arterial occlusion [1] | 145 kDa band (cleavage product of spectrin) [2] | 150 kDa band due to the digestion of spectrin [2]
1 | CC(C)[C@H](NC(=O)OCc1ccccc1)C(=O)N[C@H](C=O)Cc1ccccc1 [MDL, Cbz-Val-Phe-H] (Cbz-Val-Phe-aldehyde) | slight | slight | not detected | somewhat detected
2 | CC(C)C[C@@H](C=O)NC(=O)[C@@H](NS(=O)(=O)c1ccc(F)cc1)C(C)C [Compound 1, N-(4-fluorophenylsulfonyl)-L-valyl-L-leucinal] | significantly inhibited | significantly inhibited | not detected | somewhat detected
